# Assays:
# Assay type in all cases: in vivo
# [1] = tested on: johnsongrass (Sorghum halepense); experiment: Test C; set-up: key: 0 was no effect; 100 was complete control; settings: PREEMERGENCE
# [2] = tested on: sourgrass (Trichachne insularis); experiment: Test E pre-/postemergence/post directed; set-up: key: 0 is no effect; 100 is complete control
# Description: (§1) Seeds, tubers, or plant parts of alexandergrass (Brachiaria plantaginea), annual bluegrass (Poa annua), arrowleaf sida (Sida rhombifolia), barnyardgrass (Echinochloa crus-galli), bermudagrass (Cynodon dactylon), citrus (Citrus sinensis), common chickweed (Stellaria media), common purslane (Portulaca oleracea), common ragweed (Ambrosia elatior), common groundsel (Senecio vulgaris), dallisgrass (Paspalum dilatatum), goosegrass (Eleusine indica), green foxtail (Setaria viridis), guineagrass (Panicum maximum), itchgrass (Rottboellia exaltata), johnson grass (Sorghum halepense), kochia (Kochia scoparia), large crabgrass (Digitaria sanguinalis), leafy spurge (Euphorbia esula), pitted morningglory (Ipomoea lacunosa), purple nutsedge (Cyperus rotundus), quackgrass (Agropyron repens), Russian thistle (Salsola kali), sandbur (Cenchrus echinatus), sourgrass (Trichachne insularis), Spanishneedles (Bidens bipinnata), sugarcane (Saccharum officinarum), surinam grass (Brachiaria decumbens) and tall mallow (Malva sylvestris) were planted into greenhouse pots of flats containing greenhouse planting medium. Plant species were grown grown in separate pots or individual compartments. Preemergence applications were made within one day of planting the seed or plant part. Postemergence applications were applied when the plants were in the two to four leaf stage (three to twenty cm).
# (§2) Test chemicals were formulated in a non-phytotoxic solvent mixture which included a surfactant and applied preemergence to the soil surface, postemergence to the plants or as a post directed spray to plants and soil at the base of the target species. Untreated control plants and treated plants were placed in the greenhouse and visually evaluated for injury 13 to 21 days after herbicide application. Plant response ratings, summarized in Table E, are based on a 0 to 100 scale where 0 is no injury and 100 is complete control. A dash (−) response means no test result.
# [3] = tested on: common ragweed (Ambrosia elatior); experiment: Test E pre-/postemergence/post directed; set-up: key: 0 is no effect; 100 is complete control; settings: PREEMERGENCE
# Description: as §1, §2
# [4] = tested on: large crabgrass (Digitaria sanguinalis); experiment: Test E pre-/postemergence/post directed; set-up: key: 0 is no effect; 100 is complete control; settings: PREEMERGENCE
# Description: as §1, §2
# [5] = tested on: dallisgrass (Paspalum dilatatum); experiment: Test E pre-/postemergence/post directed; set-up: key: 0 is no effect; 100 is complete control
# Description: as §1, §2
# [6] = tested on: guineagrass (Panicum maximum); experiment: Test E pre-/postemergence/post directed; set-up: key: 0 is no effect; 100 is complete control
# Description: as §1, §2
# [7] = tested on: tall mallow (Malva sylvestris); experiment: Test E pre-/postemergence/post directed; set-up: key: 0 is no effect; 100 is complete control; settings: PREEMERGENCE
# Description: as §1, §2
# [8] = tested on: common groundsel (Senecio vulgaris); experiment: Test E pre-/postemergence/post directed; set-up: key: 0 is no effect; 100 is complete control; settings: PREEMERGENCE
# Description: as §1, §2
# [9] = tested on: goosegrass (Eleusine indica); experiment: Test E pre-/postemergence/post directed; set-up: key: 0 is no effect; 100 is complete control
# Description: as §1, §2
# [10] = tested on: surinam grass (Brachiaria decumbens); experiment: Test E pre-/postemergence/post directed; set-up: key: 0 is no effect; 100 is complete control; settings: PREEMERGENCE
# Description: as §1, §2
# [11] = tested on: common purslane (Portulaca oleracea); experiment: Test E pre-/postemergence/post directed; set-up: key: 0 is no effect; 100 is complete control
# Description: as §1, §2
# [12] = tested on: field bindweed (Convolvulus arvensis); experiment: Test C; set-up: key: 0 was no effect; 100 was complete control; settings: PREEMERGENCE
# [13] = tested on: soybean (Glycine max); experiment: Test C; set-up: key: 0 was no effect; 100 was complete control; settings: PREEMERGENCE
# [14] = tested on: sandbur (Cenchrus echinatus); experiment: Test E pre-/postemergence/post directed; set-up: key: 0 is no injury; 100 is complete control
# Summary of the method: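 Injury was scored visually on a 0 to 100 scale (100 = complete control) 13 to 21 days after treatment of greenhouse-grown plants. Test chemicals, in a surfactant-containing non-phytotoxic solvent, were sprayed onto soil within a day of planting, onto plants at the two to four leaf stage, or directed at the base of the plants.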
# [15] = tested on: purple nutsedge (Cyperus rotundus); experiment: Test C; set-up: key: 0 was no effect; 100 was complete control; settings: PREEMERGENCE
# [16] = tested on: hairy beggarticks (Bidens pilosa); experiment: Test C; set-up: key: 0 was no effect; 100 was complete control; settings: PREEMERGENCE
smiles,measurement,setting,value
Cc1cnc(-c2ccc(C(F)(F)F)cc2)nc1Cc1cccc(OC(F)(F)F)c1 [Compound 15],"Plant response rating, Johnsongrass",[1]; Rate 35 g/ha,35
same,"Plant response rating, Johnsongrass",[1]; Rate 70 g/ha,85
same,"Plant response rating, Johnsongrass",[1]; Rate 140 g/ha,100
same,"Plant response rating, Sourgrass","[2]; POSTEMERGENCE, Rate 125 g/ha",20
same,"Plant response rating, Sourgrass","[2]; POSTEMERGENCE, Rate 250 g/ha",25
same,"Plant response rating, Sourgrass","[2]; PREEMERGENCE, Rate 32 g/ha",100
same,"Plant response rating, Sourgrass","[2]; PREEMERGENCE, Rate 64 g/ha",100
same,"Plant response rating, Sourgrass","[2]; PREEMERGENCE, Rate 125 g/ha",100
same,"Plant response rating, Sourgrass","[2]; PREEMERGENCE, Rate 250 g/ha",100
same,"Plant response rating, Com. ragweed",[3]; Rate 32 g/ha,100
same,"Plant response rating, Com. ragweed",[3]; Rate 64 g/ha,100
same,"Plant response rating, Com. ragweed",[3]; Rate 250 g/ha,100
same,"Plant response rating, Large crabgrass",[4]; Rate 64 g/ha,100
same,"Plant response rating, Large crabgrass",[4]; Rate 125 g/ha,100
same,"Plant response rating, Large crabgrass",[4]; Rate 250 g/ha,100
same,"Plant response rating, Dallisgrass","[5]; POSTEMERGENCE, Rate 125 g/ha",5
same,"Plant response rating, Dallisgrass","[5]; POSTEMERGENCE, Rate 250 g/ha",50
same,"Plant response rating, Dallisgrass","[5]; PREEMERGENCE, Rate 32 g/ha",95
same,"Plant response rating, Dallisgrass","[5]; PREEMERGENCE, Rate 64 g/ha",100
same,"Plant response rating, Dallisgrass","[5]; PREEMERGENCE, Rate 125 g/ha",100
same,"Plant response rating, Dallisgrass","[5]; PREEMERGENCE, Rate 250 g/ha",100
same,"Plant response rating, Guineagrass","[6]; POSTEMERGENCE, Rate 125 g/ha",20
same,"Plant response rating, Guineagrass","[6]; POSTEMERGENCE, Rate 250 g/ha",40
same,"Plant response rating, Guineagrass","[6]; PREEMERGENCE, Rate 32 g/ha",90
same,"Plant response rating, Guineagrass","[6]; PREEMERGENCE, Rate 64 g/ha",100
same,"Plant response rating, Guineagrass","[6]; PREEMERGENCE, Rate 125 g/ha",100
same,"Plant response rating, Guineagrass","[6]; PREEMERGENCE, Rate 250 g/ha",100
same,"Plant response rating, Tall Mallow",[7]; Rate 32 g/ha,98
same,"Plant response rating, Tall Mallow",[7]; Rate 64 g/ha,100
same,"Plant response rating, Tall Mallow",[7]; Rate 125 g/ha,100
same,"Plant response rating, Tall Mallow",[7]; Rate 250 g/ha,98
same,"Plant response rating, Com. groundsel",[8]; Rate 32 g/ha,100
same,"Plant response rating, Com. groundsel",[8]; Rate 125 g/ha,100
same,"Plant response rating, Com. groundsel",[8]; Rate 250 g/ha,100
same,"Plant response rating, Goosegrass","[9]; POSTEMERGENCE, Rate 125 g/ha",20
same,"Plant response rating, Goosegrass","[9]; POSTEMERGENCE, Rate 250 g/ha",30
same,"Plant response rating, Goosegrass","[9]; PREEMERGENCE, Rate 32 g/ha",98
same,"Plant response rating, Goosegrass","[9]; PREEMERGENCE, Rate 64 g/ha",98
same,"Plant response rating, Goosegrass","[9]; PREEMERGENCE, Rate 125 g/ha",98
same,"Plant response rating, Goosegrass","[9]; PREEMERGENCE, Rate 250 g/ha",100
same,"Plant response rating, Surinam grass",[10]; Rate 125 g/ha,100
same,"Plant response rating, Surinam grass",[10]; Rate 250 g/ha,100
same,"Plant response rating, Com. purslane","[11]; POSTEMERGENCE, Rate 125 g/ha",75
same,"Plant response rating, Com. purslane","[11]; POSTEMERGENCE, Rate 250 g/ha",80
same,"Plant response rating, Com. purslane","[11]; PREEMERGENCE, Rate 32 g/ha",100
same,"Plant response rating, Com. purslane","[11]; PREEMERGENCE, Rate 64 g/ha",100
same,"Plant response rating, Com. purslane","[11]; PREEMERGENCE, Rate 125 g/ha",100
same,"Plant response rating, Com. purslane","[11]; PREEMERGENCE, Rate 250 g/ha",100
same,"Plant response rating, Field bindweed",[12]; Rate 35 g/ha,65
same,"Plant response rating, Field bindweed",[12]; Rate 70 g/ha,100
same,"Plant response rating, Field bindweed",[12]; Rate 140 g/ha,100
same,"Plant response rating, Soybean",[13]; Rate 35 g/ha,0
same,"Plant response rating, Soybean",[13]; Rate 70 g/ha,10
same,"Plant response rating, Soybean",[13]; Rate 140 g/ha,10
same,"Plant response rating, Sandbur","[14]; POSTEMERGENCE, Rate 125 g/ha",0
same,"Plant response rating, Sandbur","[14]; POSTEMERGENCE, Rate 250 g/ha",0
same,"Plant response rating, Purple nutsedge",[15]; Rate 35 g/ha,0
same,"Plant response rating, Purple nutsedge",[15]; Rate 70 g/ha,0
same,"Plant response rating, Purple nutsedge",[15]; Rate 140 g/ha,0
Cc1cnc(-n2ccc(C(F)(F)F)n2)nc1Cc1cccc(OC(F)(F)F)c1 [Compound 42],"Plant response rating, Johnsongrass",[1]; Rate 35 g/ha,70
same,"Plant response rating, Johnsongrass",[1]; Rate 70 g/ha,70
same,"Plant response rating, Johnsongrass",[1]; Rate 140 g/ha,85
same,"Plant response rating, Sourgrass","[2]; PREEMERGENCE, Rate 32 g/ha",100
same,"Plant response rating, Sourgrass","[2]; PREEMERGENCE, Rate 64 g/ha",100
same,"Plant response rating, Sourgrass","[2]; PREEMERGENCE, Rate 125 g/ha",100
same,"Plant response rating, Sourgrass","[2]; PREEMERGENCE, Rate 250 g/ha",100
same,"Plant response rating, Large crabgrass",[4]; Rate 125 g/ha,100
same,"Plant response rating, Large crabgrass",[4]; Rate 250 g/ha,100
same,"Plant response rating, Dallisgrass","[5]; PREEMERGENCE, Rate 32 g/ha",70
same,"Plant response rating, Dallisgrass","[5]; PREEMERGENCE, Rate 64 g/ha",95
same,"Plant response rating, Dallisgrass","[5]; PREEMERGENCE, Rate 125 g/ha",100
same,"Plant response rating, Dallisgrass","[5]; PREEMERGENCE, Rate 250 g/ha",100
same,"Plant response rating, Guineagrass","[6]; PREEMERGENCE, Rate 32 g/ha",95
same,"Plant response rating, Guineagrass","[6]; PREEMERGENCE, Rate 64 g/ha",95
same,"Plant response rating, Guineagrass","[6]; PREEMERGENCE, Rate 125 g/ha",100
same,"Plant response rating, Guineagrass","[6]; PREEMERGENCE, Rate 250 g/ha",100
same,"Plant response rating, Tall Mallow",[7]; Rate 32 g/ha,98
same,"Plant response rating, Tall Mallow",[7]; Rate 64 g/ha,98
same,"Plant response rating, Tall Mallow",[7]; Rate 125 g/ha,98
same,"Plant response rating, Tall Mallow",[7]; Rate 250 g/ha,100
same,"Plant response rating, Com. groundsel",[8]; Rate 64 g/ha,100
same,"Plant response rating, Com. groundsel",[8]; Rate 125 g/ha,100
same,"Plant response rating, Com. groundsel",[8]; Rate 250 g/ha,100
same,"Plant response rating, Goosegrass","[9]; PREEMERGENCE, Rate 32 g/ha",98
same,"Plant response rating, Goosegrass","[9]; PREEMERGENCE, Rate 64 g/ha",100
same,"Plant response rating, Goosegrass","[9]; PREEMERGENCE, Rate 125 g/ha",100
same,"Plant response rating, Goosegrass","[9]; PREEMERGENCE, Rate 250 g/ha",100
same,"Plant response rating, Surinam grass",[10]; Rate 125 g/ha,100
same,"Plant response rating, Surinam grass",[10]; Rate 250 g/ha,100
same,"Plant response rating, Com. purslane","[11]; PREEMERGENCE, Rate 32 g/ha",100
same,"Plant response rating, Com. purslane","[11]; PREEMERGENCE, Rate 64 g/ha",100
same,"Plant response rating, Com. purslane","[11]; PREEMERGENCE, Rate 125 g/ha",100
same,"Plant response rating, Com. purslane","[11]; PREEMERGENCE, Rate 250 g/ha",100
same,"Plant response rating, Field bindweed",[12]; Rate 35 g/ha,95
same,"Plant response rating, Field bindweed",[12]; Rate 70 g/ha,100
same,"Plant response rating, Field bindweed",[12]; Rate 140 g/ha,100
same,"Plant response rating, Soybean",[13]; Rate 35 g/ha,0
same,"Plant response rating, Soybean",[13]; Rate 70 g/ha,5
same,"Plant response rating, Soybean",[13]; Rate 140 g/ha,35
same,"Plant response rating, H. beggarticks",[16]; Rate 35 g/ha,0
same,"Plant response rating, H. beggarticks",[16]; Rate 140 g/ha,90
same,"Plant response rating, Sandbur","[14]; PREEMERGENCE, Rate 32 g/ha",0
same,"Plant response rating, Purple nutsedge",[15]; Rate 35 g/ha,0
same,"Plant response rating, Purple nutsedge",[15]; Rate 70 g/ha,0
same,"Plant response rating, Purple nutsedge",[15]; Rate 140 g/ha,0
